Here are results for one compound from patent US20120190745A1, “ORAL COMPOSITION FOR REDUCING WRINKLE FORMATION” (SHISEIDO COMPANY. LTD., priority 2009, published 2012).

Assay [1] relates to mice irradiated with ultraviolet rays. The experiment in a line: Wrinkle formation caused by UV irradiation. Particulars: 10 mM in drinking water for four weeks; UV-B three times a week, total 1.4 J/cm^2; score 0-8 per Table 1; control 4.9; p<1%. It counts as in vivo, Skh-1 hairless mice. The procedure:
Four weeks after the initiation of the D-glutamic acid administration, the dorsal areas of the mice were photographed, and a partly modified method by Bissett et al. (Bissett, D. L. et al., Photochemistry and Photobiology, 46:367(1987)) was employed to evaluate the degree of wrinkle formation in accordance with the judgment criteria indicated in Table 1 shown below.
(§1) Six week-old Skh-1 hairless mice (male) were employed.
(§2) Drinking water containing 10 mM D-glutamic acid was given via a water supplying bottle for four weeks. The negative control employed was drinking water containing no D-glutamic acid.
(§3) UV irradiation was conducted employing a partly modified method by Schwarz et al. (Haratake, A. et al., J. Invest. Dermatol. 108:769 (1997)) in accordance with the repetitive UV-B irradiation method (Naganuma, M. et al., J. Dermatol.Sci.25:29 (2001), Schwartz, E. J., Invest. Dermatol. 91:158 (1988)). Thus, the dorsal area was irradiated with UV-B(light source: Toshiba FL-20 SE fluorescent lamp manufactured by Toshiba Electric) three times a week for four weeks. The total irradiation dose was 1.4 J/cm^2. The UV dose measured with UVRADIOMETER (UVR-305/365D(II), Topcon Corporation) was employed as a readout.
The wrinkle formation was evaluated by a method similar to that in Example 1.

Assay [2] shares this test system. As to the kind of experiment: Transepidermal water loss (skin barrier function) in mice irradiated with ultraviolet rays. Conditions: 10 mM in drinking water for four weeks; UV-B three times a week, total 1.4 J/cm^2; control 16. It counts as in vivo, Skh-1 hairless mice. The procedure: as §1, §2, §3
Four weeks after the initiation of the D-glutamic acid administration, the quantity of the transepidermal water loss was measured according to a standard method.

In assay [3] the test system is tape-stripped mice. As to the kind of experiment: Wrinkle formation caused by tape stripping method. Conditions: 10 mM in drinking water for four weeks, score 0-8 per Table 1, control 3.5, p<1%. Type of assay: in vivo, HR-1 hairless mice. The procedure:
(§4) Five-week old male HR-1 hairless mice (Hoshino Laboratory Animals, Inc.) were subjected to the experiment.
as §2
(§5) For the purpose of forming a wrinkle, a tape stripping method was conducted three times a week starting on five days after the initiation of the D-glutamic acid administration according to the method by Matsunaga et al. (Matsunaga, Y. et al., Br. J. Dermatol., 156:884 (2007)). Briefly, a 24-mm width cellophane tape (Cellotape (trade mark), Nichiban Co., Ltd.) cut in a length suited to the dorsal length of a hairless mouse (HR-1 strain; Hoshino Laboratory Animals, Inc., Tokyo) was adhered evenly over the entire dorsal area and then peeled off. […] For example when a non-treated hairless mouse was subjected to the adhesion/peeling off cycle procedures, the first treatment involved four cycles, and the second and third treatments involved each five to six cycles and the treatment in the second week and later involved six to eight cycles, whereby increasing the quantity of the horny layer water loss to about to 8 mg/cm^2/h. […]

The subject of assay [4] is tape-stripped mice. As to the kind of experiment: Skin thickening caused by tape stripping method. It counts as in vivo, HR-1 hairless mice. Conditions: 10 mM in drinking water for four weeks; tape stripping three times a week; negative control 1.2; p<0.1%. The procedure:
as §4, §2
as §5, with “(2007)).” for “(2007)). Briefly, a 24-mm width cellophane tape (Cellotape (trade mark), Nichiban Co., Ltd.) cut in a length suited to the dorsal length of a hairless mouse (HR-1 strain; Hoshino Laboratory Animals, Inc., Tokyo) was adhered evenly over the entire dorsal area and then peeled off.”
Four weeks after the initiation of the D-glutamic acid administration, the skin thickness was measured using a thickness gauge. The measured value of the skin thickness represented as “skin thickness×2”, since the measurement was conducted by calipering the skin with the thickness gauge.

`N[C@H](CCC(=O)O)C(=O)O` [D-glutamic acid]: the wrinkle score was 3.3 in assay [1] and 1.5 in the assay on tape-stripped mice [3]. Further, the “quantity of the transepidermal water loss” value in assay [2] is given as 13. For the same compound, in the assay on tape-stripped mice [4], the “mean value of the skin thickness (skin thickness×2)” value is given as 1.05.
